Reference: patent US11447466B2, “Substituted indole compounds useful as inhibitors of TLR7/8/9” (BRISTOL-MYERS SQUIBB COMPANY, priority 2017, dated 2022)

How the values were obtained:
Type in all cases: cell-based
human TLR8 = target: T1, human TLR8 (Homo sapiens, UniProt Q9NR97); assay: TLR8 inhibition reporter assay (HEK-Blue SEAP reporter, R848 stimulation); details: HEK-Blue cells overexpressing human TLR8, SEAP reporter, R848 15.9 μM, 22 hour incubation
T1 construct: host or cells: HEK-Blue cells
T1 sequence (Q9NR97 27-1041): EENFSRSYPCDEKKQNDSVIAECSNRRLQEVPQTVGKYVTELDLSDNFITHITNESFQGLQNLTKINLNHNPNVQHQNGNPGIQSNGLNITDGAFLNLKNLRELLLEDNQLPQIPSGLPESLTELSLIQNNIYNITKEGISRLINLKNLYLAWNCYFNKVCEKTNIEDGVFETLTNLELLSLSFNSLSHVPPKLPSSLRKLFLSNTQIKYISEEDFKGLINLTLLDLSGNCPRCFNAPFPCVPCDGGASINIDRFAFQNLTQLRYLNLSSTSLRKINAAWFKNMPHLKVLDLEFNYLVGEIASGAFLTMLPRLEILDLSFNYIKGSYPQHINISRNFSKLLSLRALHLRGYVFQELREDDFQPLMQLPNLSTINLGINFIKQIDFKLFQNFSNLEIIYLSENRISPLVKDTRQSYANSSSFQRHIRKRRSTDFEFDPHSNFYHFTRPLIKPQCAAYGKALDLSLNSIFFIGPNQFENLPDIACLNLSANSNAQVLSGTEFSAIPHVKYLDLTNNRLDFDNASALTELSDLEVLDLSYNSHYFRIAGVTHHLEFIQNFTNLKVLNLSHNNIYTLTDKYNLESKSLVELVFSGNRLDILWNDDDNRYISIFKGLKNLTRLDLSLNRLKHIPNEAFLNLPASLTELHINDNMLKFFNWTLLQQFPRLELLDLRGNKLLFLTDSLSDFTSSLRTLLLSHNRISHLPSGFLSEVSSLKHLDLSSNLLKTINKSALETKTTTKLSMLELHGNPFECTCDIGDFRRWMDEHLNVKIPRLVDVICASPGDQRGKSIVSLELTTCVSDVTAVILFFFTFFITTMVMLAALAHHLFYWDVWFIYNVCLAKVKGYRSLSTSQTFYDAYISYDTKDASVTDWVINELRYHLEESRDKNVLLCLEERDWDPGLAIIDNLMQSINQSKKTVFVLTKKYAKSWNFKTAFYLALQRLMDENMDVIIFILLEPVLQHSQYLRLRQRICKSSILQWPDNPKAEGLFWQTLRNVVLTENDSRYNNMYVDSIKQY
Experimental: (§1) TLR7/8/9 Inhibition Reporter Assays
(§2) HEK-Blue™-cells (Invivogen) overexpressing human TLR7, TLR8 or TLR9 receptors were used for screening inhibitors of these receptors using an inducible SEAP (secreted embryonic alkaline phosphatase) reporter gene under the control of the IFN-β minimal promoter fused to five NF-κB and AP-1-binding sites. Briefly, cells are seeded into Greiner 384 well plates (15000 cells per well for TLR7, 20,000 for TLR8 and 25,000 for TLR9) and then treated with test compounds in DMSO to yield a final dose response concentration range of 0.05 nM-50 μM. After a 30 minute compound pre-treatment at room temperature, the cells are then stimulated with a TLR7 ligand (gardiquimod at a final concentration of 7.5 μM), TLR8 ligand (R848 at a final concentration of 15.9 μM) or TLR9 ligand (ODN2006 at a final concentration of 5 nM) to activate NF-κB and AP-1 which induce the production of SEAP. After a 22 hour incubation at 37° C., 5% CO2, SEAP levels are determined with the addition of HEK-Blue™ Detection reagent (Invivogen), a cell culture medium that allows for detection of SEAP, according to manufacturer's specifications. The percent inhibition is determined as the % reduction in the HEK-Blue signal present in wells treated with agonist plus DMSO alone compared to wells treated with a known inhibitor.

human TLR7 = target: T2, human TLR7 (Homo sapiens, UniProt Q9NYK1); assay: TLR7 inhibition reporter assay (HEK-Blue SEAP reporter, gardiquimod stimulation); details: HEK-Blue cells overexpressing human TLR7, SEAP reporter, gardiquimod 7.5 μM, 22 hour incubation
T2 construct: host or cells: HEK-Blue cells
T2 sequence (Q9NYK1 27-1049): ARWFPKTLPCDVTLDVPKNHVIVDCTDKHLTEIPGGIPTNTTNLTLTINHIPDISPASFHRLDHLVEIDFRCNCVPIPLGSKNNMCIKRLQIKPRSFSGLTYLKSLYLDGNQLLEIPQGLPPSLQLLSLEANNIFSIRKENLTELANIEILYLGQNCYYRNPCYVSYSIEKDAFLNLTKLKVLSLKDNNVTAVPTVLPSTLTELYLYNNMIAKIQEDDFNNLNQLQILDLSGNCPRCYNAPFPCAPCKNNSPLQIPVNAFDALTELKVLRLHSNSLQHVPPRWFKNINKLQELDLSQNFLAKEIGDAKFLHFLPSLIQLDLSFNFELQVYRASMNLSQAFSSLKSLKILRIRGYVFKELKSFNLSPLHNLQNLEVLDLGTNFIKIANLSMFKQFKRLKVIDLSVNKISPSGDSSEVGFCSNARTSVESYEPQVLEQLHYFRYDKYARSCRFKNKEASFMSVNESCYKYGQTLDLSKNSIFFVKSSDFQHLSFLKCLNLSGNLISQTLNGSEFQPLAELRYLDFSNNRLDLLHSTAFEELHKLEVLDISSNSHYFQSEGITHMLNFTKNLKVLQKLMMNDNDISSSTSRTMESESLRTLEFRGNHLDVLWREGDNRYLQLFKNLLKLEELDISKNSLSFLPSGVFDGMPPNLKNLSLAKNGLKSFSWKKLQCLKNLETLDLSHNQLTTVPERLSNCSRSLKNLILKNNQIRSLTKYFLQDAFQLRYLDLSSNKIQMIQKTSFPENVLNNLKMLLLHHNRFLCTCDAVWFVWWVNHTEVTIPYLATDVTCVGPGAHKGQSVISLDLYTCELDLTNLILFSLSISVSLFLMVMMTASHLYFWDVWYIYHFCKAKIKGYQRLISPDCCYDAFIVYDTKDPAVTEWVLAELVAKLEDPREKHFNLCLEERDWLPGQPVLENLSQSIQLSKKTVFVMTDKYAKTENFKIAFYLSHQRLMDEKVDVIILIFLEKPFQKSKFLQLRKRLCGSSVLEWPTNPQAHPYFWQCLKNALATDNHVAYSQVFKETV
Experimental: as §1, §2

human TLR9 = target: T3, human TLR9 (Homo sapiens, UniProt Q9NR96); assay: TLR9 inhibition reporter assay (HEK-Blue SEAP reporter, ODN2006 stimulation); details: HEK-Blue cells overexpressing human TLR9, SEAP reporter, ODN2006 5 nM, 22 hour incubation
T3 construct: host or cells: HEK-Blue cells
T3 sequence (Q9NR96 26-1032): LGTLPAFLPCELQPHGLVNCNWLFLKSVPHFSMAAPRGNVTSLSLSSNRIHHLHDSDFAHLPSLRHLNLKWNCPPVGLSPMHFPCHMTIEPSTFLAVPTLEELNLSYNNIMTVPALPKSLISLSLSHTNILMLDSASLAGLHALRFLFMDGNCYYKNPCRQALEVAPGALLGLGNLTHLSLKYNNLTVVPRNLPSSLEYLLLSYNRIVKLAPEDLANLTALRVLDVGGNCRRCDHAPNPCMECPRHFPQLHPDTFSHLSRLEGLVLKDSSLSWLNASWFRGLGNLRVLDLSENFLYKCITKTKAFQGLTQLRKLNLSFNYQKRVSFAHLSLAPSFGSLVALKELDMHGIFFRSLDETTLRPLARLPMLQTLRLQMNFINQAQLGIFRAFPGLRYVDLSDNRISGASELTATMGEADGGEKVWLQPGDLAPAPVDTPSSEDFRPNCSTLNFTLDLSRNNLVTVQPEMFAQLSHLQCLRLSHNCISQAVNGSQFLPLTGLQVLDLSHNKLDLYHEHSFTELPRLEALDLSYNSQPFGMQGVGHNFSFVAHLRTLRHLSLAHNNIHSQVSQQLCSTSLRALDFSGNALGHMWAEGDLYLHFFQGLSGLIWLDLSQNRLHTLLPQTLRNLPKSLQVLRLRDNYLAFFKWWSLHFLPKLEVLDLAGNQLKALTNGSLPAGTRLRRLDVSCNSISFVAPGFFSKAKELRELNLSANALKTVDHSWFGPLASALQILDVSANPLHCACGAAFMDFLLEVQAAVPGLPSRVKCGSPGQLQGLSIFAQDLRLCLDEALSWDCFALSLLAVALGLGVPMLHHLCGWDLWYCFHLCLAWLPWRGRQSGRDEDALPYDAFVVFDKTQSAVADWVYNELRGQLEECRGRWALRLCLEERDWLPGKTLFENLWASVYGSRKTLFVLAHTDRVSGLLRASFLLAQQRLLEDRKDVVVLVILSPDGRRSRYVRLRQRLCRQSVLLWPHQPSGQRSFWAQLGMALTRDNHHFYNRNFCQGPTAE
Experimental: as §1, §2

| IC50 (human TLR8) | IC50 (human TLR7) | IC50 (human TLR9) | SMILES |
| --- | --- | --- | --- |
| 15.4 nM | 27.5 nM | 621 nM | CC(C)c1c(-c2ccc(=O)n(C)c2)[nH]c2ccc(C3CCNCC3)cc12 [Example 1, 5-(3-isopropyl-5-(piperidin-4-yl)-1H-indol-2-yl)-1-methylpyridin-2(1H)-one] |
| 5.1 nM | 1.6 nM | 4340 nM | Cc1cc(-c2[nH]c3ccc(C4CCNCC4)cc3c2C(C)C)cn(C)c1=O [Example 2, 5-(3-isopropyl-5-(piperidin-4-yl)-1H-indol-2-yl)-1,3-dimethylpyridin-2(1H)-one] |
| 3.4 nM | 8.4 nM | 979 nM | Cc1cc(-c2[nH]c3ccc(C4CCNCC4)cc3c2C(C)C)c(C)n(C)c1=O [Example 3, 5-(3-isopropyl-5-(piperidin-4-yl)-1H-indol-2-yl)-1,3,6-trimethylpyridin-2(1H)-one] |
| 38.4 nM | 82.8 nM | 756 nM | CC(C)c1c(-c2cn(C)c(=O)cn2)[nH]c2ccc(C3CCNCC3)cc12 [Example 4, 5-(3-isopropyl-5-(piperidin-4-yl)-1H-indol-2-yl)-1-methylpyrazin-2(1H)-one] |
| 107 nM | 179 nM | 763 nM | CC(C)c1c(-c2ccc(=O)n(C)n2)[nH]c2ccc(C3CCNCC3)cc12 [Example 5, 6-(3-isopropyl-5-(piperidin-4-yl)-1H-indol-2-yl)-2-methylpyridazin-3(2H)-one] |
| 13.3 nM | 12.8 nM | 580 nM | Cc1c(-c2[nH]c3ccc(C4CCNCC4)cc3c2C(C)C)ccc(=O)n1C [Example 6, 5-(3-isopropyl-5-(piperidin-4-yl)-1H-indol-2-yl)-1,6-dimethylpyridin-2(1H)-one] |
| 43.5 nM | 72.7 nM | 957 nM | Cc1cc(=O)n(C)cc1-c1[nH]c2ccc(C3CCNCC3)cc2c1C(C)C [Example 8, 5-(3-isopropyl-5-(piperidin-4-yl)-1H-indol-2-yl)-1,4-dimethylpyridin-2(1H)-one] |
| 11.5 nM | 50.8 nM | 879 nM | CC(C)c1c(-c2cc(N)c(=O)n(C)c2)[nH]c2ccc(C3CCNCC3)cc12 [Example 9, 3-amino-5-(3-isopropyl-5-(piperidin-4-yl)-1H-indol-2-yl)-1-methylpyridin-2(1H)-one] |
| 38.4 nM | 330 nM | 1540 nM | Cc1cc(=O)n(C)nc1-c1[nH]c2ccc(C3CCNCC3)cc2c1C(C)C [Example 10, 6-(3-isopropyl-5-(piperidin-4-yl)-1H-indol-2-yl)-2,5-dimethylpyridazin-3(2H)-one] |
|  |  | ≥ 50000 nM | CC(C)c1c(-c2cc(C(=O)N(C)C)c(=O)n(C)c2)[nH]c2ccc(C3CCNCC3)cc12 [Example 63, 5-(3-isopropyl-5-(piperidin-4-yl)-1H-indol-2-yl)-N,N,1-trimethyl-2-oxo-1,2-dihydropyridine-3-carboxamide] |
| 289 nM |  | ≥ 50000 nM | Cc1cc(-c2[nH]c3ccc(C4CCN(CC(=O)NC[C@@H](C)O)CC4)cc3c2C(C)C)cn(C)c1=O [Example 125, (R)-2-(4-(2-(1,5-dimethyl-6-oxo-1,6-dihydropyridin-3-yl)-3-isopropyl-1H-indol-5-yl)piperidin-1-yl)-N-(2-hydroxypropyl)acetamide] |
| 631 nM |  | ≥ 50000 nM | Cc1cc(-c2[nH]c3ccc(C4CCN(CC(=O)NC[C@H](C)O)CC4)cc3c2C(C)C)cn(C)c1=O [Example 126, (S)-2-(4-(2-(1,5-dimethyl-6-oxo-1,6-dihydropyridin-3-yl)-3-isopropyl-1H-indol-5-yl)piperidin-1-yl)-N-(2-hydroxypropyl)acetamide] |
| 983 nM |  | 6610 nM | CCCN1CCC(c2ccc3[nH]c(-c4cc(N5CCCCC5)c(=O)n(C)c4)c(C(C)C)c3c2)CC1 [Example 173, 5-(3-isopropyl-5-(1-propylpiperidin-4-yl)-1H-indol-2-yl)-1-methyl-3-(piperidin-1-yl) pyridin-2(1H)-one] |
